Source: patent publication US8871799B2, “Iminochromene anti-viral compounds” (priority 2010, dated 2014)

Tests used:
[1] = test system: HCV; assay: HCV RNA release by Huh7 cells; assay type: cell-based, Hepatitis C virus; conditions: control level 100% in the absence of drug
[2] = test system: Murine Encephalomyocarditis virus (EMCV); assay: EMCV antiviral assay (MTS cell viability); conditions: Huh7 cells, 250 pfu EMCV, negative controls ~0.7-0.75
[3] = test system: HCV2a virus; assay: HCV IF antiviral assay (HCV inhibition assay); assay type: cell-based, Hepatitis C virus; conditions: for Number HCV infected cells: Huh7 cells, 80 infected cells at 0 μM

Compound	Level of HCV RNA in supernatant ([1]; KIN700 at 10 μM)	Cell viability post-infection ([2]; 5 μM)	Cell viability post-infection ([2]; 10 μM)	Cell viability post-infection ([2]; 20 μM)	Change in number of HCV-infected cells with increasing concentration ([3]; 0, 5 μM, 10 μM and 50 μM)	Number HCV infected cells ([3]; KIN700 added 5 μM)	Number HCV infected cells ([3]; KIN700 added 10 μM)	Number HCV infected cells ([3]; KIN700 added 50 μM)	Level of HCV RNA in supernatant ([1]; Interferon sample)	HCV infection with positive control treatment ([3]; positive control, representative experiments)
COc1ccc(/N=c2\oc3ccc(Cl)cc3cc2C(N)=S)cc1 [KIN700]	less than 10%	~0.8	~1.5	~1.7	dose-dependent decrease	25	13	13	–	–
interferon [reference compound]	–	–	–	–	–	–	–	–	less than 5%	completely blocks HCV infection
